Laboratory results taken from article PMC5234776, “Study of the Antimicrobial Activity of Tilapia Piscidin 3 (TP3) and TP4 and Their Effects on Immune Functions in Hybrid Tilapia (Oreochromis spp.)” (PLoS ONE, 2017).
In brackets after ≈: the same amount, converted by molar mass. Peptide text beside a SMILES is read from it.

Columns and labels:
V. vulnificus [1] = assay: microbe, parasite or virus in culture; type: cell-based, Vibrio vulnificus; details: peptide treated from room temperature to as high as 100°C; 16 hours of incubation
Procedure: To understand the effects of pH on TP3 or TP4, the reagents were dissolved in ddH2O, 1 M HCl or 1 M NaOH to obtain solutions with different pH values. For the temperature-dependent functional study, the TP3 or TP4 was added to a solution in a water bath (Basic life, model BL3002, Taiwan) and incubated for 60 minutes at different temperatures (40, 60, 80, or 100°C). To evaluate the effects of TP3 and TP4 on pepsin and trypsin function, each peptide was incubated for 10 or 30 minutes with different concentrations of pepsin or trypsin (0.1, 1, or 10 μg/ml), […], according to a previously described MIC experimental protocol.

V. vulnificus [2] = assay: Membrane perturbation, NPN uptake; type: cell-based, Vibrio vulnificus; details: 1×10^6 CFU/ml, 30 minutes, 40 μmol/L NPN; kanamycin: slight increase only
Procedure: We used previously reported methods for the membrane perturbation assay. Briefly, a single colony of V. vulnificus was cultured in TSB medium for 480 minutes at 28°C, and the adjusted culture (1×10^6 CFU/ml) was aliquoted into different tubes with or without TP4 or TP3. After incubating the cells for 30 minutes, we added 40 μmol/L 1-N-phenylnaphthylamine (NPN) and continued to incubate the cells. Tubes containing PBS with NPN and bacterial cells with NPN served as controls. The NPN fluorescence intensity was detected using a fluorescence ELISA reader. All experiments were performed in triplicate, and the results are expressed as means with standard errors (SE).

V. vulnificus [3] = assay: In vivo bactericidal activity, bacterial load in tilapia liver; parameters: species or system tilapia (Oreochromis spp.); details: for V. vulnificus bacterial load in the liver versus infected untreated fish: 20, 30 or 40 μg/fish, co-, pre- or post-treatment, in words; for bacterial clearance of V. vulnificus from the tilapia: after 48 hours
Procedure: Three groups of fish were used for these experiments. The first group was first injected with V. vulnificus (2×10^5 CFU/fish) followed by TP3 or TP4 peptides (20, 30, or 40 μg/fish) 0.5 hours later. A second group was first injected with TP3 or TP4 peptides (20, 30, or 40 μg/fish) and then, 0.5 hours later, with V. vulnificus (2×10^5 CFU/fish). A third group of tilapia was simultaneously injected (co-treated) with V. vulnificus (2×10^5 CFU/fish) and TP3 or TP4 peptides (20, 30, or 40 μg/fish). Liver samples were obtained from each group of tilapia at 3, 6, 9, 12, 24, and 48 hours after the final treatment and the tissues were homogenized in TSB medium before being spread onto TCBS plates. We incubated the plates at 28°C for 12 hours and then counted the number of bacterial colonies.

in vivo = assay: in vivo; parameters: species or system tilapia (Oreochromis hybrids, Tilapia spp.); details: iv, 0.2 mg/kg
Procedure: The peptide half-life of TP3 and TP4 were investigated in male tilapia (Oreochromis hybrids, Tilapia spp., with a mean body length of 32.33±1.5 cm and a mean body weight of 1117±78.2 g) after intravenous administration of a single dose of 0.2 mg/kg of peptide. The TP3 and TP4 concentrations in serum samples were determined at 10, 30, 60, 120, 180, 240, 300, and 360 minutes for TP3 and at 10, 60, 120, 180, 240, 300, and 360 minutes after dosing for TP4. At each sample collection time point, we anesthetized three fish and collected their blood. The blood was centrifuged to obtain fish serum, which was assessed by liquid chromatography-mass spectrometry/mass spectrometry (LC-MS/MS) at Mission Biotech (Taipei, Taiwan).

V. vulnificus [4] = assay: microbe, parasite or virus in culture; type: cell-based, Vibrio vulnificus
Procedure: We determined the MICs of TP3, TP4, kanamycin, and ampicillin against V. vulnificus using a broth microdilution method in accordance with NCCLS guidelines. To measure the killing efficiencies of TP3 and TP4 against V. vulnificus, we prepared TP3 or TP4 solutions at MIC concentrations of 0.5×, 1×, and 2× and these solutions with equal volumes of V. vulnificus (1×10^6 CFU/ml) to each well of a 96-well plate. The plates were incubated at 28°C for 0, 60, 120, 180, 360, 540, 720, or 1440 minutes, and after the incubation period, 50 μL of each bacterial solution were plated on a TCBS plate to obtain viable cell counts. Broth grown in the absence of peptides was used as a negative control. The results were determined using triplicate independent experiments.
First, we determined the minimum MICs and minimum bactericidal concentrations (MBCs) of TP3 or TP4 against V. vulnificus.

[5] = system: IL-1β, IL-6, IL-8, Mcp-8, β-defensin; assay: qPCR of immune-related gene expression in tilapia liver and spleen; type: in vivo, tilapia (Oreochromis spp.); details: in words; for expression of immune-related genes IL-1β, IL-6, IL-8 and MCP-8: co-treatment or peptide treatment alone; for expression of TP2, TP3, TP4 or β-defensin antimicrobial peptide genes in liver: peptide alone or co-treatment, 3 hours after treatment
Procedure: Total RNA was isolated from the tilapia by peptide treatment before, concurrent with and after infection as described above. The groups included one that was only injected with V. vulnificus (2×10^5 CFU/fish) and one that was only injected with peptides (20 μg/fish). Samples were collected at 3, 6, 12, 24, and 48 hours after treatment to extract RNA, and the levels of tilapia total RNA obtained from the liver and spleen were determined with comparative real-time qRT-PCR analysis of all experimental groups. Real-time qRT-PCR was used to detect the levels of IL-1β (GenBank accession no. DQ061114.1), IL-6 (GenBank accession no. XM_005478656), IL-8 (GenBank accession no. NM001279706), Mcp-8 (GenBank accession no. XM_005478749) and β-defensin (GenBank accession no. KF294753). mRNA was isolated and transcribed into complementary first strands (c) according to previously published methods for real-time comparative qPCR to obtain DNA and detect the relative expression levels of each gene. All samples were examined in triplicate using a sample size of five tilapia. The reactions used to analyze gene expression consisted of 0.05 μg of total RNA. Comparative qRT-PCR Mastermix for the SYBR Green kit (Applied Biosystems, Perkin-Elmer) was used for quantification. The total reaction volume was 20 μl; the reactions were run in 96-well plates; and the program consisted of 40 cycles of 3 seconds at 95°C and 20 seconds at 60°C. We added a dissociation thermal start temperature of […] to each experiment to analyze the melting peaks of the generated PCR products. The data from each experiment were expressed as a ratio of the specific target gene expression/β-actin RNA expression. We used t-tests to compare groups, and multiple group comparisons were tested by ANOVA in SPSS software. Differences were defined as significant at P<0.05 (*), <0.01 (**), and <0.001 (***).

With CC[C@H](C)[C@H](NC(=O)[C@H](CC(C)C)NC(=O)[C@H](CO)NC(=O)[C@H](Cc1c[nH]cn1)NC(=O)[C@@H](NC(=O)[C@H](Cc1c[nH]cn1)NC(=O)[C@H](CCCCN)NC(=O)CNC(=O)[C@@H](NC(=O)[C@H](CO)NC(=O)[C@H](Cc1ccccc1)NC(=O)[C@H](CC(C)C)NC(=O)CNC(=O)CNC(=O)[C@@H](NC(=O)[C@@H](NC(=O)[C@H](Cc1c[nH]cn1)NC(=O)[C@H](Cc1c[nH]cn1)NC(=O)[C@@H](NC(=O)[C@@H](N)Cc1ccccc1)[C@@H](C)CC)[C@@H](C)CC)[C@@H](C)CC)C(C)C)[C@@H](C)CC)C(=O)N[C@@H](Cc1c[nH]cn1)C(=O)NCC(=O)N[C@@H](Cc1c[nH]cn1)C(=O)O [TP3, tilapia piscidin 3] (H-FIHHIIGGLFSVGKHIHSLIHGH-OH) the “concentration sufficient to eliminate V. vulnificus” value (V. vulnificus [1]) was 250 µg/mL, the “concentration that increased NPN fluorescence” value (V. vulnificus [2]) was 60 µg/mL and the “V. vulnificus bacterial load in the liver versus infected untreated fish” value (V. vulnificus [3]) was “significantly lower”. The “bacterial clearance of V. vulnificus from the tilapia” value (V. vulnificus [3]) was 100%, the “half-life of the injected peptide in tilapia serum” value (in vivo) was 2 to 3 h and the MBC (V. vulnificus [4]) was 62.5 µg/mL (≈ 24.4 µM). For the same molecule, the “expression of immune-related genes IL-1β, IL-6, IL-8 and MCP-8” value [5] was “down-regulation”, the “expression of TP2, TP3, TP4 or β-defensin antimicrobial peptide genes in liver” value [5] was “down-regulated” and the “IL-1β, IL-6, IL-8, Mcp-8 and β-defensin gene expression in liver” value ([5]; pre-treatment and post-treatment groups, three hours after infection with V. vulnificus) was “significantly higher levels”. The “IL-1β, IL-6, IL-8 and β-defensin gene expression in spleen” value ([5]; pre-treatment and post-treatment, three hours after infection) was “significant increase”.

With CC[C@H](C)[C@H](NC(=O)[C@H](C)NC(=O)[C@H](CCCCN)NC(=O)CNC(=O)[C@H](C)NC(=O)[C@H](CO)NC(=O)[C@H](Cc1ccccc1)NC(=O)[C@H](CC(C)C)NC(=O)CNC(=O)CNC(=O)[C@@H](NC(=O)[C@@H](NC(=O)[C@H](Cc1c[nH]cn1)NC(=O)[C@H](Cc1c[nH]cn1)NC(=O)[C@@H](NC(=O)[C@@H](N)Cc1ccccc1)[C@@H](C)CC)[C@@H](C)CC)[C@@H](C)CC)C(=O)N[C@@H](Cc1c[nH]cn1)C(=O)N[C@@H](CCCNC(=N)N)C(=O)N[C@@H](CC(C)C)C(=O)N[C@H](C(=O)N[C@@H](CCCNC(=N)N)C(=O)N[C@@H](CCCNC(=N)N)C(=O)N[C@@H](CCCNC(=N)N)C(=O)N[C@@H](CCCNC(=N)N)C(=O)N[C@@H](CCCNC(=N)N)C(=O)O)[C@@H](C)CC [TP4, tilapia piscidin 4] (H-FIHHIIGGLFSAGKAIHRLIRRRRR-OH) the “concentration sufficient to eliminate V. vulnificus” value (V. vulnificus [1]) was 31.2 µg/mL, the “concentration that increased NPN fluorescence” value (V. vulnificus [2]) was 8 µg/mL and the “V. vulnificus bacterial load in the liver versus infected untreated fish” value (V. vulnificus [3]) was “significantly reduced”. The “bacterial clearance of V. vulnificus from the tilapia” value (V. vulnificus [3]) was 100%, the MBC (V. vulnificus [4]) was 7.8 µg/mL (≈ 2.62 µM) and the “expression of immune-related genes IL-1β, IL-6, IL-8 and MCP-8” value [5] was “down-regulation”. For the same molecule, the “IL-1β, IL-6, IL-8 and Mcp-8 expression in spleen” value ([5]; peptide alone or co-injected with V. vulnificus, 12 hours after treatment) was “lower” and the “expression of TP2, TP3, TP4 or β-defensin antimicrobial peptide genes in liver” value [5] was “down-regulated”.
